Assay results as given in article PMC9495972, “Dissecting the Activity of Catechins as Incomplete Aldose Reductase Differential Inhibitors through Kinetic and Computational Approaches” (Biology, 2022).
Entries after “also recorded” stand apart in the source; their conditions may differ.

Assays:
[1] = molecular target: T1, human recombinant AKR1B1 (Homo sapiens, UniProt P15121); assay: AKR1B1 activity inhibition, decrease in absorbance at 340 nm linked to NADPH oxidation; type: biochemical; details: for remaining activity at 800 µM: in the presence of 0.8 mM compound, read-out: residual activity; for IC50: 10 mU AKR1B1, 37 °C, pH 6.8, 95% CLs in text
T1 construct: made in house
Experimental: (§1) The AKR1B1 activity was determined at 37 °C, as previously described, monitoring the decrease in absorbance at 340 nm linked to NADPH oxidation (ε340 = 6.22 mM^−1·cm^−1) using a Biochrom Libra S60 spectrophotometer. The standard assay mixture (0.7 mL) contained 0.25 M sodium phosphate buffer pH 6.8, 0.18 mM NADPH, 0.4 M ammonium sulfate, 0.5 mM EDTA, and 4.7 mM GAL. One unit of enzyme activity is the amount of enzyme that catalyzes the conversion of 1 µmol of substrate/min in the above assay conditions.
IC50 values were determined by non-linear regression analysis using GraphPad Prism version 7.04 (GraphPad Software, San Diego, CA, USA). Values were obtained from at least six different inhibitors concentrations (each assayed at least in triplicate) and are reported with their 95% Confidence Limits (CLs). […] The final concentration of ethanol in the assay was never higher than 1%. […] The percentage of inhibition was calculated referring to an assay performed using the same solvent concentration in the absence of inhibitors.
(§2) The human recombinant AKR1B1 was expressed and purified to electrophoretic homogeneity, as previously described. […] The purified enzyme was stored at −80 °C in a 10 mM sodium phosphate buffer pH 7.0 containing 2 mM DTT and 30% (w/v) glycerol. Before use, AKR1B1 was extensively dialyzed against 10 mM sodium phosphate buffer pH 7.0.

[2] = molecular target: T1, human recombinant AKR1B1; assay: Inhibition kinetic analysis of AKR1B1-dependent reduction of L-idose, HNE and GSHNE; type: biochemical; details: for k+4: kinetic constant of ternary complex EIS to products; for Km: in the absence of inhibitors, read-out: KM of the substrate; for Km / kcat (k+2) of the substrate: at least 20 independent experiments; for kcat (k+2) of the substrate: in the absence of the inhibitor
Experimental: as §1, §2
The kinetic parameters ^appkcat and ^appKM were evaluated by non-linear regression analysis of rate measurements vs. substrate concentration according to Michaelis-Menten equation. The analysis was performed through GraphPad Prism 7.04 software by a non-linear “Robust Regression” analysis in which each point is individually weighted through iterative weighing of the smallest squares. The same approach was adopted to analyze the dependence of ^appkcat, ^appKM, and ^appKM/^appkcat from the concentration of the inhibitors [I], making use of previously derived equations [27] (see text).
The hyperbolic kinetic equation for an incomplete mixed type of inhibition analyzed with both branches of product formation at the steady state and with the inhibitor binding at equilibrium, was defined using the apparent kinetic parameters ^appKM and ^appkcat (Equations (1)–(3), see ref [27] for further details). (1) kappcat=Ki*k+2+k+4[I]/Ki*+[I] (2) appKM=KMKi*+(Ki*/KiKM+k+4/k+1)[I]+k+4/Kik+1[I]^2/Ki*+[I] (3) appKM/appkcat= KMKi*+(Ki*/KiKM+k+4/k+1)[I]+k+4/Kik+1[I]^2/Ki*k+2+k+4[I]
Thus, ^appkcat and ^appKM values emerging from non-linear regression analysis of primary data (Figure 3) were analyzed through non-linear regression using Equations (1) and (2), respectively. […] The above starting values of kcat and KM derived from at least 20 independent experiments in which kinetic parameters were measured in the absence of inhibitors. […] The k+4 values are reported in Table 1 as the average of values emerging from ^appKM/^appkcat versus [I] (Equation (3) or Equation (4)) and 1/^appkcat versus [I] (Equation (1)) plots.

[3] = tested on: AKR1B1; details: cited from earlier work
[4] = tested on: human AKR1B1; parameters: method as in PMID 32640594; details: in the absence of GCG; cited from earlier work
[5] = tested on: human AKR1B1; assay: Docking, MD simulations and MM-PBSA binding free energy evaluations
Experimental: The X-ray structure of human AKR1B1 in complex with D-glyceraldehyde and the NADP cofactor (PDB code 3V36), as well as the co-crystal structure of human AKR1B1 in complex with a nitrofuryl-oxadiazol inhibitor (PDB code 2IKH), were downloaded from the Protein Data Bank. Molecular docking calculations were performed with GOLD 5.1 (CCDC Software Ltd., Cambridge, UK) with the Piecewise Linear Potential (PLP) fitness function; both the two X-ray structures and the previously predicted protein–substrate complexes (i.e., AKR1B1-L-idose, AKR1B1-HNE, and AKR1B1-GSHNE) were employed as the protein. […] When protein–substrate complexes were used as the receptor, the ten top-scored clusters of solutions in which the ligand formed at least one H-bond with the substrate were selected as the best clusters of solutions, which were considered for further analyses.
Molecular dynamics (MD) simulations were performed with AMBER 20 [32] using the ff14SB force field. General Amber force field (GAFF) parameters were used for the ligands, the substrates, and the cofactor, whose partial charges were calculated with the AM1-BCC method as implemented in the Antechamber suite of AMBER 20 (University of California, San Francisco, CA, USA). […] Each analyzed complex was placed in a rectangular parallelepiped water box, using the TIP3P explicit solvent model for water, and solvated with a 15 Å water cap. […]

[6] = GSHNE reduction, calculated using k+2 109 ± 8 min^−1
[7] = HNE reduction, calculated using k+2 78 ± 4 min^−1
[8] = L-idose reduction, calculated using k+2 195 ± 6 min^−1

Oc1cc(O)c2c(c1)O[C@H](c1ccc(O)c(O)c1)[C@H](O)C2 [EC, epicatechin]
remaining activity at 800 µM [1]: ~70%

O=C(O[C@@H]1Cc2c(O)cc(O)cc2O[C@@H]1c1ccc(O)c(O)c1)c1cc(O)c(O)c(O)c1 [ECG, epicatechin gallate]
Ki/Ki* ([2]; GSHNE reduction): approximately 2 | inhibition type ([2]; GSHNE reduction): mixed inhibition type | k+4/k+2 (%) [2, 6]: 14.3 ± 3.9% | k+4 ([2]; GSHNE reduction): 15.6 ± 4.3 min⁻¹ | k+4/k+2 (%) [2, 7]: 8.6 ± 0.4% | k+4 ([2]; HNE reduction): 6.7 ± 2.7 min⁻¹ | Ki ([2]; Ki*, GSHNE reduction, apparent dissociation constant of ternary complex EIS): 46 ± 11 µM | Ki ([2]; Ki*, HNE reduction, apparent dissociation constant of ternary complex EIS): 54 ± 9 µM | Ki ([2]; Ki*, L-idose reduction, apparent dissociation constant of ternary complex EIS): 46 ± 5 µM | Ki ([2]; Ki, GSHNE reduction, dissociation constant of enzyme-inhibitor complex): 91 ± 10 µM | Ki ([2]; Ki, HNE reduction, dissociation constant of enzyme-inhibitor complex): > 10000 µM | Ki ([2]; Ki, L-idose reduction, dissociation constant of enzyme-inhibitor complex): 116 ± 8 µM | inhibition type ([2]; L-idose reduction): mixed inhibition type | k+4/k+2 (%) [2, 8]: 2.7 ± 1.7% | k+4 ([2]; L-idose reduction): 5.2 ± 3.2 min⁻¹ | IC50 ([1]; IC50 for GSHNE reduction, […] GSHNE as substrate): 143 µM | IC50 ([1]; IC50 for HNE reduction, 0.03 mM HNE as substrate): 257 µM | IC50 ([1]; IC50 for the reduction of L-idose, 8 mM L-idose as substrate): 67 µM

Oc1cc(O)c2c(c1)O[C@H](c1cc(O)c(O)c(O)c1)[C@H](O)C2 [EGC, epigallocatechin]
inhibitory action on AKR1B1 (in words) [3]: inhibits AKR1B1 irrespective of the used substrate

O=C(O[C@@H]1Cc2c(O)cc(O)cc2O[C@@H]1c1cc(O)c(O)c(O)c1)c1cc(O)c(O)c(O)c1 [EGCG, epigallocatechin gallate]
inhibitory action on AKR1B1 (in words) [3]: preserved only HNE reduction; also recorded: act as ARDIs, even though not complete

O=C(O)c1cc(O)c(O)c(O)c1 [GA, gallic acid]
inhibitory action on AKR1B1 (in words) [3]: act as ARDIs, even though not complete

Oc1cc(O)c2c(c1)O[C@H](c1cc(O)c(O)c(O)c1)[C@@H](O)C2 [GC, gallocatechin]
remaining activity at 800 µM [1]: ~70%

O=C(O[C@@H]1Cc2c(O)cc(O)cc2O[C@H]1c1cc(O)c(O)c(O)c1)c1cc(O)c(O)c(O)c1 [GCG, gallocatechin gallate]
inhibition type ([2]; GSHNE reduction): uncompetitive inhibition | k+4 ([2]; GSHNE reduction): 6.0 ± 1.0 min⁻¹ | k+4/k+2 (%) [2, 7]: 12.2 ± 1.1% | k+4 ([2]; HNE reduction): 9.5 ± 0.9 min⁻¹ | inhibition type ([2]; L-idose reduction): mixed inhibition type | k+4/k+2 (%) [2, 8]: 2.9 ± 0.25% | k+4 ([2]; L-idose reduction): 5.6 ± 0.5 min⁻¹

CCCCCC(O)C(CC=O)SC[C@H](NC(=O)CC[C@H](N)C(=O)O)C(=O)NCC(=O)O (some centres unmarked) [GSHNE, 3-glutathionyl-4-hydroxynonanal adduct]
Km [2]: 120 ± 16 µM | kcat (k+2) of the substrate [2]: 1.82 ± 0.13 s⁻¹ | binding affinity estimated for the substrate bound to AKR1B1 [4]: -30.3 kcal/mol

CCCCCC(O)/C=C/C=O (centres unmarked) [HNE, 4-hydroxynonenal]
Km [2]: 51 ± 5 µM | kcat (k+2) of the substrate [2]: 1.3 ± 0.067 s⁻¹ | binding affinity estimated for the substrate bound to AKR1B1 [4]: -18.6 kcal/mol

O=C[C@H](O)[C@@H](O)[C@H](O)[C@@H](O)CO [L-idose]
Km [2]: 4260 ± 300 µM | kcat (k+2) of the substrate [2]: 3.25 ± 0.1 s⁻¹ | binding affinity estimated for the substrate bound to AKR1B1 [4]: -17.4 kcal/mol | increase in the binding affinity of the substrate for the complex ([5]; due to the presence of GCG): 32% | lowering of substrate binding free energy with GCG versus without ([5]; presence versus absence of GCG): 5.5 kcal/mol

C[C@@H]1O[C@@H](O[C@H]2[C@H](O[C@H]3[C@H](O[C@H]4CC[C@@]5(C)[C@@H](CC[C@]6(C)[C@@H]5CC=C5[C@@H]7CC(C)(C)C[C@@H](O)[C@]7(C)CC[C@]56C)[C@@]4(C)CO)O[C@H](C(=O)O)[C@@H](O)[C@@H]3O)O[C@H](CO)[C@H](O)[C@@H]2O)[C@H](O)[C@H](O)[C@H]1O [soyasaponin Bb]
inhibitory action on AKR1B1 (in words) [3]: acting as ARDI

catechin gallate [CG]
inhibition type ([2]; GSHNE reduction): uncompetitive inhibition | k+4/k+2 (%) [2, 6]: 3.8 ± 0.8% | k+4 ([2]; GSHNE reduction): 4.1 ± 0.8 min⁻¹ | k+4/k+2 (%) [2, 7]: approximately 6% | k+4 ([2]; HNE reduction): 4.7 ± 0.7 min⁻¹ | inhibition type ([2]; L-idose reduction): mixed inhibition type | k+4/k+2 (%) [2, 8]: 0.7 ± 0.3% | k+4 ([2]; L-idose reduction): 1.4 ± 0.6 min⁻¹
